# According to patent US12661308B2, “Antimicrobial AZO compounds and uses thereof” (The Regents Of The University Of Colorado, A Body Corporate, priority 2019, dated 2026):
# Legend:
# [1] = test system: S. mutans (ATCC 25175) biofilm; test: Detachment study of S. mutans biofilm on monomer-coated polymeric substrates (Example 1); format: cell-based, Streptococcus mutans; conditions: for detachment of S. mutans biofilm (CFU removed): 50 mg/mL coating solution, light/wash treatment
# Description: The polymeric substrates were prepared by mixing 54 wt % methyl methacrylate (MMA), 30 wt % polymethylmethacrylate (PMMA, MW ˜35 k), and 16 wt % tetraethylene glycol dimethacrylate (TEGDMA) at 70° C. for 2 hr. After mixing, 1 wt. % azobisisobutyronitrile (AIBN) was added to the formulation as an initiator and mixed.
# The mixed formulation was added to circular molds (diameter=6.5 mm) cut from a strip of rubber (thickness=0.9 mm) and pressed between two glass microscope slides. The mold was clamped together and thermally cured at 80° C. for 1.5 hr.
# The polymeric substrates were coated as follows. Coating solutions were prepared having the following monomer concentrations (see FIG. 3 for structures of the monomers): 0.5 mg/mL and 50 mg/mL solutions of a phenolic acrylated azobenzene monomer (OH-AAZO), 50 mg/mL acrylated azobenzene monomer (AAZO), 50 mg/mL 4-hydroxyl benzylacrylate (HBA), 50 mg/mL 2-hydroxylethyl methacrylate (HEMA).
# The coating solutions included the monomer in N,N′-dimethylformamide (DMF) along with 0.5 mg/mL of AIBN and 0.1 mg/mL of Rhodamine B as an indicator dye. Once mixed, 3 μL of each coating solution was pipetted onto one side of the polymeric substrate and spun at 1000 RPM for 1 min followed by spinning at 6000 RPM for 3 s. The coating was cured under a nail lamp (Melody Susie UV Gel Nail Polish Dryer, Model DR-301C) for at least 15 min before repeating the coating procedure on the other side.
# The controlled growth of biofilms varied depending on the bacteria strain. In the case of S. mutans, a BHI agar plate was streaked with S. mutans (ATCC 25175) and allowed to incubate at 37° C. in 5% CO2 for 60 hr to isolate a single bacterial colony. The colony was inoculated in 5 mL of BHI and allowed to incubate statically in the 5% CO2 incubator for 24 hr. The stock solution was diluted 1:50 in a 96-well plate containing the substrates of interest and allowed to incubate in the 5% CO2 incubator for an additional 24 hr.
# The detachment study quantified the biofilm grown on each substrate via a series of washes in 1×PBS. The substrate was irradiated using a dental lamp (FlashMax P3 Ortho™, 1900 mW/cm2, wavelength=450-470 nm) on the underside of the vial for a total of ten 3 s irradiations per side. Following the series of washes, the substrate was sonicated for 10 min to remove the residual biofilm on the substrate. The wash solutions were serial diluted, plated, and grown at 37° C. and 5% CO2 to obtain the CFU count.
# Images collected from a digital microscope (Zeiss Axioplan II microscope, 630×, step size 0.1 μm) after the substrate and bacteria were treated with BACLIGHT Live/Dead stain are included in FIG. 4.
# S. mutans biofilm = S. mutans biofilm growth on coated pit and fissure dental sealants; format: cell-based, Streptococcus mutans; conditions: coating on pit and fissure sealants
# Excerpt: In some implementations, the azobenzene polymers can be used as an antimicrobial coating on pit and fissure dental sealants. […] Azobenzene coatings can be incorporated into pit and fissure sealants as an anti-bacterial coating to prevent tooth decay.
compound,measurement,setting,value
"C=CC(=O)OCc1ccc(O)cc1 [HBA, 4-hydroxybenzyl acrylate]",detachment of S. mutans biofilm (CFU removed),[1],minimal detachment
"C=C(C)C(=O)OCCO [HEMA, 2-hydroxylethyl methacrylate]",detachment of S. mutans biofilm (CFU removed),[1],minimal detachment
Acrylated azobenzene [AAZO],detachment of S. mutans biofilm (CFU removed),[1],minimal detachment
same,"S. mutans biofilm on substrate, Live/Dead stain microscopy",[1]; after wash/light treatment,still contained a robust S. mutans biofilm
same,S. mutans biofilm growth,S. mutans biofilm,significantly reduced
